Measured values reported in US9428753B2, “Use of LXR antagonists for treatment of side effects of elevated glucocorticoid levels” (The Governing Council of the University of Toronto, priority 2013, dated 2016).
Values belong to the compound of their own block, whether it stands above or below them.

Key:
GR = biological target: T1, GR (Homo sapiens, UniProt P04150); test: GAL4-GR / UAS-luc co-transfection reporter assay in HEK293 cells; format: cell-based; set-up: co-transfecting UAS-reporter and GAL4-LBD of the nuclear receptors LXRα, LXRβ and GR; GAL4 (fusion partner); expressed in transfected cells; host or cells: HEK293 cells; mouse primary hepatocytes; conditions: Example 7, 100 nM Dex
T1 sequence (P04150 524-758 limits assumed): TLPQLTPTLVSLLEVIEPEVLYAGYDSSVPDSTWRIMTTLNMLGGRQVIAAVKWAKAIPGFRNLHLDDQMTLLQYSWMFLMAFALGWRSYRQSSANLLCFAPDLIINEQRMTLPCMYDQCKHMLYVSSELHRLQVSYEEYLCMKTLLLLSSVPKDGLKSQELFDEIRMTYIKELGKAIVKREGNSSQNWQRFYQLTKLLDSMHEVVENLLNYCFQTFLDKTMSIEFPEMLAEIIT
Experimental: (§1) RLU=relative luciferase units.
as §1
Further experiments were then carried out to determine the inhibitory potencies for the individual LXR isoforms in HEK 293 cells by co-transfecting UAS-reporter and GAL4-LBD of the nuclear receptors LXRα, LXRβ and GR and then treating with 8 different concentrations of GSK2033. To assess suppression of ligand activated receptors, the transfected cells were co-treated with increasing doses of GSK2033, in addition to T09091317 or Dex (dexamethasone) (at EC80 of LXR isoforms and GR, respectively).
A number of experiments were carried out to determine the relative inhibitory potencies of GSK2033, Amgen 54 and DMHCl for the individual LXR isoforms in HEK 293 cells by co-transfecting UAS-reporter and GAL4-LBD of the nuclear receptors LXRα, LXRβ and GR and then treating with 6 different concentrations of GSK2033, Amgen 54 and DMHCl. To assess suppression of ligand activated receptors, the transfected cells were co-treated with increasing doses of GSK2033, Amgen 54 and DMHCl, in addition to T09091317 or Dex (at EC80 of LXR isoforms and GR, respectively).

Pepck = Pepck gene expression in mouse primary hepatocytes; format: cell-based; conditions: for GC-induced Pepck expression: Example 6, GC alone (10 μM; Dex 100 nM)
G6Pc = G6Pc gene expression in mouse primary hepatocytes; conditions: LXRα−/− hepatocytes; for G6Pc expression: 100 nM Dex + 10 μM LXR antagonist; for GC-induced G6Pc expression: Example 6, GC alone (10 μM; Dex 100 nM), overnight
Experimental: For the gene expression studies, the isolated hepatocytes were cultured at least 24 hrs prior to treatment with 10 μM Cortisol, 10 μM Triamcinolone acetonide, 10 μM Prednisone, and 100 nM Dex all±10 μM GSK2033 overnight, and then harvested to isolate mRNA.

[1] = tested on: mouse primary hepatocytes; test: Glucose production (glucose output) in mouse primary hepatocytes; format: cell-based
Experimental: (§2) T09 treatment was used as a positive control for LXR activity. (D) Glucose output over 24 hrs from LXRα−/− and LXRβ−/− mouse primary hepatocytes following Dex 100 nM±10 μM GSK2033 treatment. (E) Glucose output over 8 hrs from WT hepatocytes following Dex 500 nM±10 μM GSK2033 treatments. Data represent the Avg±SD, N=3. *P<0.05 by One way ANOVA, Student Newman Keuls. Legend: V=vehicle, G=GSK2033 (LXR antagonist); D=dexamethasone (GR agonist); and T09=T0901317 (LXR agonist).
While not wishing to be limited by theory, subsequent to conducting these initial studies it was realized that 24 hour incubation of hepatocytes in gluconeogenic media may be too long. In the literature, for this type of assay, primary heptocytes are usually incubated up to 12 hours. As such, for subsequent studies of the present application, WT cells were treated with 500 nM Dex for 8 hours to be able to measure detectable levels of glucose in the media.

[2] = tested on: tyrosine aminotransferase (TAT); test: TAT gene expression in mouse primary hepatocytes; format: cell-based; conditions: 100 nM Dex
Experimental: as §2, with “Data represent the Avg±SD, N=3. *P<0.05 by One way ANOVA, Student Newman Keuls.” left out

LXRα−/− mice = test: In vivo 5 day Dex ± GSK2033 co-treatment study; set-up: species or system mouse; conditions: Dex group
Experimental: LXRα−/− mice were treated with Vehicle (Veh), Dex (2.5 mg/kg) b.i.d. or GSK2033 40 mg/kg (once a day) along with Dex b.i.d. for 5 days. (A) Plasma glucose levels were measured by a colorimetric kit (Wako). (B) Spleen weights were measured at the time of sacrifice, and are presented normalized to body weight. (C) Liver Pepck, FOXO1, Pgc 1α, FGF21, GR and LXRβ gene expression measured by QPCR. Data represent the Avg±SEM, N=2-5. *P<0.05 by One way ANOVA, Student Newman Keuls.
Having observed promising results with GSK2033 co-treatment with Dex in-vitro (GSK2033-mediated suppression of GC-induced gluconeogenic side effects without affecting desirable immune suppression); a study was conducted, in which whole body LXRα−/− mice were treated with vehicle (Veh), 2.5 mg/kg bid (subcutaneous injection) Dex or Dex+40 mg/kg GSK2033 (once a day intraperitoneal injection) for 5 days, and sacrificed at lights on.

IL-1β = IL-1β gene expression in LPS activated mouse primary macrophages (RT-QPCR); format: cell-based; conditions: LPS activated macrophages; 250 nM T09, 18 hrs
Experimental: (§3) The expression of genes involved in immune response IL-1β, IL-6 and GILZ was measured following an overnight treatment with Dex 100 nM, 250 nM T0901317 (T09), and/or 10 μM GSK2033 in LPS activated WT, LXR α −/− and LXRβ −/− mouse primary macrophages, by RT-QPCR. Data represent the Avg±SD, N=3. *P<0.05 by One way ANOVA, Student Newman Keuls.
(§4) To assess the ability of GSK2033 to affect GR-mediated inflammatory suppression, a number of gene expression studies were conducted on primary macrophages isolated from WT, LXRα−/− and LXRβ−/− mice. Cells were pre-treated with 10 ng/ml lipopolysaccharide (LPS) for 6 hrs (to induce a potent inflammatory response) followed by treatment of 100 nM Dex, 10 μM GSK2033 and/or 250 nM T09 for 18 hrs.

IL-6 = IL-6 gene expression in LPS activated mouse primary macrophages (RT-QPCR); format: cell-based; conditions: LPS activated macrophages; 250 nM T09, 18 hrs
Experimental: as §3, §4

Srebp-1c = Srebp-1c gene expression in mouse primary hepatocytes; format: cell-based; conditions: 250 nM T09
[3] = Example 8, LXRα−/− hepatocytes, 100 nM Dex + 10 μM LXR antagonist

Dex induced GR activity (GR): unaffected
Structure (SMILES): CS(=O)(=O)c1ccc(C#CC(O)(c2ccc(N(CC3CC3)S(=O)(=O)c3ccccc3)cc2)C(F)(F)F)cc1 (stereo not drawn) [Amgen 54]
Pepck expression (Pepck; [3]): 8.4 fold
G6Pc expression (G6Pc; Example 8): 6.5 fold

Structure (SMILES): C[C@]12CCC(=O)C=C1CC[C@@H]1[C@@H]2[C@@H](O)C[C@@]2(C)[C@H]1CC[C@]2(O)C(=O)CO [Cortisol, cortisol (hydrocortisone)]
GC-induced Pepck expression (Pepck; LXRα−/− hepatocytes, overnight): 23.9 fold
GC-induced G6Pc expression (G6Pc): 10.3 fold

Structure (SMILES): CC(CCC(=O)N(C)C)[C@H]1CC[C@H]2C3CC=C4CC(Cl)CC[C@]4(C)C3CC[C@]12C (stereo partly drawn) [DMHCl]
Dex induced GR activity (GR): unaffected
Pepck expression (Pepck; [3]): 1.4 fold
G6Pc expression (G6Pc; Example 8): 3.9 fold

Structure (SMILES): C[C@@H]1C[C@H]2[C@@H]3CCC4=CC(=O)C=C[C@]4(C)[C@@]3(F)[C@@H](O)C[C@]2(C)[C@@]1(O)C(=O)CO [Dex, dexamethasone]
glucose secretion (glucose output) ([1]; LXRα−/− hepatocytes, 100 nM Dex alone, 24 hours): 2.2 fold
glucose secretion (glucose output) ([1]; WT hepatocytes, 500 nM Dex alone, 8 hours): 3 fold
TAT expression (induction) ([2]; LXRα−/− hepatocytes): 12.7 fold
TAT expression (induction) ([2]; LXRβ−/− hepatocytes): 9.7 fold
TAT expression (induction) ([2]; WT hepatocytes): 20.8 fold
liver FOXO 1 gene expression (induction) (LXRα−/− mice): 3.3 fold
liver Pepck gene expression (induction) (LXRα−/− mice): 3.7 fold
Pepck expression (Pepck; Example 3, LXRα−/− hepatocytes, 100 nM Dex alone): 15.7 fold
Pepck expression (Pepck; Example 3, WT hepatocytes, 100 nM Dex alone, overnight): 8.5 fold
GC-induced Pepck expression (Pepck; LXRα−/− hepatocytes, overnight): 23.2 fold
Dex-induced Pepck expression (Pepck; Example 8, LXRα−/− hepatocytes, 100 nM Dex alone): 15.8 fold
GC-induced G6Pc expression (G6Pc): 11.2 fold
Dex-mediated G6Pc expression (G6Pc; Example 8, 100 nM Dex alone): 10.3 fold

Structure (SMILES): C[C@]12C=CC(=O)C=C1CC[C@@H]1[C@@H]2C(=O)C[C@@]2(C)[C@H]1CC[C@]2(O)C(=O)CO [Prednisone, prednisone]
GC-induced Pepck expression (Pepck; LXRα−/− hepatocytes, overnight): 9.3 fold
GC-induced G6Pc expression (G6Pc): 22.3 fold

Structure (SMILES): O=S(=O)(c1ccccc1)N(CC(F)(F)F)c1ccc(C(O)(C(F)(F)F)C(F)(F)F)cc1 [T09]
IL-1β expression, LXR agonist alone (IL-1β): suppression
IL-6 expression, LXR agonist alone (IL-6): suppression
Srebp-1c expression (induction) (Srebp-1c; LXRα−/− hepatocytes): 3.7 fold
Srebp-1c expression (induction) (Srebp-1c; LXRβ−/− hepatocytes): 42.0 fold
Srebp-1c expression (induction) (Srebp-1c; WT hepatocytes): 37.7 fold

Structure (SMILES): CC1(C)O[C@@H]2C[C@H]3[C@@H]4CCC5=CC(=O)C=C[C@]5(C)[C@@]4(F)[C@@H](O)C[C@]3(C)[C@]2(C(=O)CO)O1 [Triamcinolone acetonide, triamcinolone acetonide]
GC-induced Pepck expression (Pepck; LXRα−/− hepatocytes, overnight): 6.1 fold
GC-induced G6Pc expression (G6Pc): 27.3 fold
